# Source: patent US8455620B2, “Cloning and expression of a novel phytase” (Feed Research Institute Chinese Academy of Agricultural …, priority 2006, dated 2013)
# “Also recorded” adds a separate entry of the source. Where two headings read alike, the source gives them in different places.
# Columns and labels:
# r-AppA = format: biochemical, Yersinia intermedia; conditions: 1 mM, pH 4.5
# [1] = Specific activity of purified r-AppA, ferrous sulfate-molybdenum blue method; format: biochemical; conditions: r-AppA purified through Sephacryl S-200; pH 4.5; protein by Lowry method
# Method: A total of 72 transformants were analyzed for phytase activity by ferrous sulfate-molybdenum blue method. 950 μl of substrate solution (4 mM sodium phytase in 0.25M sodium acetate buffer, pH5.0) was added to 50 μl diluted enzyme solution, which was reacted at 37° C. for 30 minutes. Then, 1 mL of 10% TCA (trichloroacetic acid) solution was added to stop the reaction. As a control, TCA solution was added into the enzyme solution to inactivate the enzyme and then substrate solution was added. After the reaction has terminated, 2 mL of reagent C (0.576M acid sulfate, 1% ammonium molybdate, 7.32% Ferrous sulfate.7H2O) was added, and left for 10 minutes. The intensity of the blue color was measured at 700 nm, and activities in enzyme solution and in a control were measured. 1 unit of phytase activity was determined to be the enzyme amount releasing 1 μmol of phosphate for 1 minute. […]
# In order to determinate the specific activity, the concentration of the r-AppA purified through Sephacryl S-200 was determined by the Lowry method, and the enzyme activity of the r-AppA purified was determined by ferrous sulfate-molybdenum blue method at pH 4.5. As a result, the specific activity of r-AppA purified was 3960±248 U/mg, which is the highest specific activity, comparing to other phytases recorded previously.
# [2] = Enzyme activity of r-AppA according to temperature and pH; format: biochemical
# Method: A total of 72 transformants were analyzed for phytase activity by ferrous sulfate-molybdenum blue method. 950 μl of substrate solution (4 mM sodium phytase in 0.25M sodium acetate buffer, pH5.0) was added to 50 μl diluted enzyme solution, which was reacted at 37° C. for 30 minutes. Then, 1 mL of 10% TCA (trichloroacetic acid) solution was added to stop the reaction. As a control, TCA solution was added into the enzyme solution to inactivate the enzyme and then substrate solution was added. After the reaction has terminated, 2 mL of reagent C (0.576M acid sulfate, 1% ammonium molybdate, 7.32% Ferrous sulfate.7H2O) was added, and left for 10 minutes. The intensity of the blue color was measured at 700 nm, and activities in enzyme solution and in a control were measured. 1 unit of phytase activity was determined to be the enzyme amount releasing 1 μmol of phosphate for 1 minute. Two days after methanol induction, 11 transformants out of 72 produced phytase activity from 48 to 270 U/mL of medium. Obviously, the ORF obtained above, was a novel gene, which encoded a polypeptide with phytase activity. The polypeptide with phytase activity, which encoded by mature region of OFR, was named r-AppA.
# (§1) The r-AppA purified through Sephacryl S-200 was investigated an enzyme activity of phytase, according to temperature and pH. The effect of pH on phytase activity was determined using the following buffer solutions: glycine-HCl, pH 1.5-3.5; Na acetate-acetic acid, pH 3.5-6.0; Tris-HCl, pH 6.0-8.5, and glycine-NaOH, pH 8.5-10. All buffers used for dilution contained 0.05% BSA and 0.05% Triton. As is shown in FIG. 2, the enzyme activity varied with pH. […] 70% of the enzyme activity was still maintained at pH 2.5, and 65% of the enzyme activity was still maintained at pH 5.5. […] And over 70% activity still remained at pH 1.0-2.0.
# (§2) As is shown in FIG. 3A, the enzyme activity varied with temperature. The temperature optima were determined at the pH optimum (pH 4.5) ranging the temperature values from 20 to 80° C. […] As is shown in FIG. 3B, when the enzyme was left at 80° C. for 10 minutes, over 50% of the activity was remained, and 40% of the activity was remained, at 80° C. for 1 hour. Compared to AppA from E. coli, which was widely used in feed industry as a feed additive, the r-AppA are higher stability at higher temperatures.
# pH stability of r-AppA = format: physicochemical; conditions: 37° C.
# Method: as §1
# [3] = Heat stability of r-AppA at 80° C.; format: physicochemical
# Method: as §2
# pepsin = assay: Protease resistance of r-AppA, incubation with pepsin; format: biochemical; conditions: 0.025 mg/ml phytase, 0.1 mg/ml pepsin, 37° C., 5 min to 2 h
# Method: (§3) To determine the protease resistance, the purified phytase (0.025 mg/ml) was incubated with 0.1 mg/ml of pepsin and trypsin at 37° C. And then, sample incubated was collected respectively at 5 min, 10 min, 20 min, 30 min, 1 h, and 2 hs.
# trypsin = assay: Protease resistance of r-AppA, incubation with trypsin; format: biochemical; conditions: 0.025 mg/ml phytase, 0.1 mg/ml trypsin, 37° C., 5 min to 2 h
# Method: as §3
compound,measurement,setting,value
[Ag+] [Ag],Enzyme activity of r-AppA (control = 100),r-AppA,84
[Ca+2] [Ca],Enzyme activity of r-AppA (control = 100),r-AppA,98
[Co+2] [Co],Enzyme activity of r-AppA (control = 100),r-AppA,93
[Cu+2] [Cu],Enzyme activity of r-AppA (control = 100),r-AppA,61
same,"effect on enzyme activity of r-AppA, in words",r-AppA; listed as Cu^2+,obviously inhibited; also recorded: strongly inhibited
O=C(O)CN(CCN(CC(=O)O)CC(=O)O)CC(=O)O [EDTA],Enzyme activity of r-AppA (control = 100),r-AppA,101
same,"effect on enzyme activity of r-AppA, in words",r-AppA,not significantly changed
[Fe+2] [Fe],Enzyme activity of r-AppA (control = 100),r-AppA,47
same,"effect on enzyme activity of r-AppA, in words",r-AppA; listed as Fe^2+,obviously inhibited; also recorded: strongly inhibited
[K+] [K],Enzyme activity of r-AppA (control = 100),r-AppA,99
[Li+] [Li],Enzyme activity of r-AppA (control = 100),r-AppA,95
[Mg+2] [Mg],Enzyme activity of r-AppA (control = 100),r-AppA,94
[Mn+2] [Mn],Enzyme activity of r-AppA (control = 100),r-AppA,104
same,"effect on enzyme activity of r-AppA, in words",r-AppA,weakly enhanced
[Na+] [Na],Enzyme activity of r-AppA (control = 100),r-AppA,95
[Ni+2] [Ni],Enzyme activity of r-AppA (control = 100),r-AppA,98
CCCCCCCCCCCCOS(=O)(=O)[O-].[Na+] [SDS],Enzyme activity of r-AppA (control = 100),r-AppA,9
same,"effect on enzyme activity of r-AppA, in words",r-AppA,almost lost
[Zn+2] [Zn],Enzyme activity of r-AppA (control = 100),r-AppA,44
same,"effect on enzyme activity of r-AppA, in words",r-AppA; listed as Zn^2+,obviously inhibited; also recorded: strongly inhibited
"r-AppA: polypeptide with phytase activity encoded by mature region of the ORF from Yersinia intermedia H-27, expressed in Pichia pastoris (SEQ ID NO: 3)",specific activity,[1],3960±248 U/mg
same,enzyme activity maintained (relative to maximum),[2]; at pH 2.5,70%
same,temperature of highest activity (optimal temperature),"[2]; at pH 4.5, 20 to 80° C.",55 °C
same,enzyme activity maintained (relative to maximum),[2]; at pH 5.5,65%
same,pH of highest activity (optimal pH),[2]; buffers pH 1.5-10,4.5
same,activity remained (pH stability),"pH stability of r-AppA; pH 1.0-2.0, 2 hours",over 70%
same,activity remained (pH stability),"pH stability of r-AppA; pH 2.5-10, 2 hours",over 85%
same,activity remained (heat stability),[3]; 80° C. for 10 minutes,over 50%
same,activity remained (heat stability),[3]; 80° C. for 1 hour,40%
same,phytase activity after incubation with pepsin,pepsin,not significantly changed
same,phytase activity after incubation with pepsin,pepsin; listed as phytase,strong resistance
same,phytase activity after incubation with trypsin,trypsin,not significantly changed
same,phytase activity after incubation with trypsin,trypsin; listed as phytase,strong resistance
